Several values for one entry are separate records, joined by “and”; a condition that tells them apart may be missing. Equal values may be shown once. Entries after “also recorded” stand apart in the source; their conditions may differ. Read-outs that look alike come from different tables or passages of the source.
Legend:
[1] = tested on: neonatal PCP treated rats; assay: Rat neonatal PCP ID/ED set shifting; format: in vivo; details: for Number of trials to criteria, Complex discrimination / Number of trials to criteria, Simple discrimination: individual rats
Experimental: Male pups were treated with either 0.9% saline (sham) or PCP (20 mg/kg, sc) on post-natal days 7, 9 and 11 and then singly housed after weaning on postnatal days 21–25. All studies were conducted in adult animals (2–4 months of age) using methods adapted from. Rats were food-restricted (15g/rat/day) for 7 days prior to the initiation of training and throughout the remainder of the study. At the time of testing the average (± SEM) body weight ranged from 278 ± 6g to 296 ± 9g across the individual treatment groups. The animals then received 3 days of training during which they were handled, habituated to the test arena (5 min/day) and trained to dig in a ceramic pot for a food reward (Honey Nut Cheerios). The testing arena was constructed of black plastic (45 cm wide x 60 cm long x 45 cm tall) and divided into 3 compartments, i.e. a separate starting box and 2 choice boxes separated by an opaque wall. Each choice box contained a terracotta (4 inch diameter) pot, filled with digging media and with scented oil applied to the rim. At the beginning of each trial the animal was placed in the start box, the sliding door was opened and the subject was allowed to freely explore the two choice boxes. Both pots were initially baited with food until the subject reliably retrieved the food rewards from each. Thereafter, rats were trained to discriminate between either 2 distinct odors (stimulus dimension 1) or 2 distinct digging media (stimulus dimension 2) in order to correctly identify the baited pot. On the first trial only, rats were allowed to dig in both pots if an error was made (with the trial scored as an error trial). Thereafter animals were allowed to dig in one pot only per trial and were tested until the performance criterion of 6 consecutive correct choices was achieved. Each trial was limited to a maximum duration of 5 min and any subject not achieving performance criteria was eliminated from the study. On completion of a successful odor discrimination animals were then trained to successfully complete a simple discrimination trial based on digging media. Odor and digging media used in these initial training trials were not used again for ID/ED testing. […] All subjects were brought to the experimental laboratory at least 30 min prior to behavioral assessment. To determine ID/ED performance rats were tested for their ability to successfully complete a series of discriminations based on either odor or digging media. In all instances subjects were pre-assigned one stimulus dimension (i.e. digging media or odor) as the correct predictor of the food reward for the first series of discriminations. Only at the final stage i.e. the extra-dimensional shift (EDS) was the subject required to shift attention away from the assigned stimulus dimension to a different dimension (e.g. odor to digging media) to correctly identify the baited pot. The sequence of discriminations was a follows: simple discrimination (SD), compound discrimination (CD), intra-dimensional shift 1 (IDS1), intra-dimensional shift 2 (IDS2), intra-dimensional shift 2 reversal (IDS2rev) and EDS and examples of exemplars are shown in S1 Table. For all discrimination stages successful completion was defined as 6 consecutive correct trials at which point subjects progressed to the next phase of the task. The test session ended when either i) all discrimination phases were successfully completed or ii) testing had proceeded for 120 min. The average duration of a test session was 1 h and all subjects completed the ID/ED task within the allotted timeframe.

[2] = tested on: S(+)ketamine treated rats; assay: Rat S(+)ketamine N40 gating
[3] = biological target: Dopamine D1 (Homo sapiens, UniProt P21728); assay: Selectivity panel, binding
Dopamine D1, sequence (P21728 whole entry): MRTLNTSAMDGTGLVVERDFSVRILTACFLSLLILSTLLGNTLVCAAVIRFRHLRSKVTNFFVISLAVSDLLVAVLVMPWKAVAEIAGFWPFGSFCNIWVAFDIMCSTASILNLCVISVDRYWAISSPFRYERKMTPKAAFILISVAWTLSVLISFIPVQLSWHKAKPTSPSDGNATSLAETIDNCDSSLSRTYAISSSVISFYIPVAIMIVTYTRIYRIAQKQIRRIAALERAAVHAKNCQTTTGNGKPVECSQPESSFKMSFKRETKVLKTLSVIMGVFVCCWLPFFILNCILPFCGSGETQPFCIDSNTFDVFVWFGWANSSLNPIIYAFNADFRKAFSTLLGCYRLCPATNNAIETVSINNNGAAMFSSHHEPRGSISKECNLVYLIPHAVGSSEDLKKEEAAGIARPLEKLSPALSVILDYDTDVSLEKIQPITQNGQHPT

[4] = biological target: MAO-B (Homo sapiens, UniProt P27338); assay: Selectivity panel, enzyme; format: biochemical
[5] = biological target: Histamine H1 (Homo sapiens, UniProt P35367); assay: Selectivity panel, binding
[6] = biological target: CB1 (Homo sapiens, UniProt P21554); assay: Selectivity panel, binding; details: read-out: % inhibition @ 10 µM
CB1, sequence (P21554 whole entry): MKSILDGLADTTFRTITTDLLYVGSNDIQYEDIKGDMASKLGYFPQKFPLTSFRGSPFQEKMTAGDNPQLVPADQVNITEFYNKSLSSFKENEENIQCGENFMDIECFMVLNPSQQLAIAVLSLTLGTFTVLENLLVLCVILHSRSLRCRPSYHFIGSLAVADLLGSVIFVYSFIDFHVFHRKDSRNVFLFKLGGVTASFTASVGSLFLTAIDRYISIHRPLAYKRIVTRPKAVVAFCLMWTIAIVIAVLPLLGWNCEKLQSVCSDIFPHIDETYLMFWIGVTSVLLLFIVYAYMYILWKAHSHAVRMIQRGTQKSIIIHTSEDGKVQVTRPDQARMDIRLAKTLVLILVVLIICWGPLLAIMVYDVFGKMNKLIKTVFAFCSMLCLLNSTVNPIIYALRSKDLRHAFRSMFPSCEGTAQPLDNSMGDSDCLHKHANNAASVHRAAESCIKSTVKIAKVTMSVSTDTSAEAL

[7] = tested on: L-type calcium channel; assay: Selectivity panel, functional; format: cell-based; details: Human
[8] = biological target: HEK293/Human α7 nAChR (Homo sapiens, UniProt P36544); assay: [3H]-A-585539 filtration binding; design: expressed in transfected cells
HEK293/Human α7 nAChR, sequence (P36544 23-502): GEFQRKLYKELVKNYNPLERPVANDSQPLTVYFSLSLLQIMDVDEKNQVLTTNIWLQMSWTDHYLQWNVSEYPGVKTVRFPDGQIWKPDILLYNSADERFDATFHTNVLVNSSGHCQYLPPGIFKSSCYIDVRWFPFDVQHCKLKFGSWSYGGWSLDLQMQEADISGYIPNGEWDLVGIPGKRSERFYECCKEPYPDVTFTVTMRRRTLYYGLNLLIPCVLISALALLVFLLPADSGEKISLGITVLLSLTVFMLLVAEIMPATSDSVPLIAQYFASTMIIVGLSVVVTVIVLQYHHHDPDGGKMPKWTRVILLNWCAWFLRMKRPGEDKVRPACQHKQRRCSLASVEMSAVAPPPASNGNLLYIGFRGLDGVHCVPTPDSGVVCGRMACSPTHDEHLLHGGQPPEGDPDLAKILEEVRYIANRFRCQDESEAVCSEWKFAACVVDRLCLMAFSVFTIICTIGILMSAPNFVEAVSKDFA

[9] = biological target: T1, HEK293/human α7 nAChR cells (Homo sapiens, UniProt P36544); assay: Whole cell voltage clamp electrophysiology; format: cell-based; details: for Net Charge (Current Area) normalized to 300 µM ACh / Peak Current normalized to 3 mM ACh: individual cells
T1 construct: expressed in transfected cells
T1 sequence (P36544 23-502): as above
Experimental: Whole-cell voltage clamp studies were conducted on HEK293/rat α7 or HEK293/human α7 nAChR cells. […] Atropine (1 μM) was included in the bathing solution. […] Cells were voltage clamped at a holding potential of -90 mV. Using the Dynaflow microfluidic perfusion system (Cellectricon; flow 26 μl/min) responses to a 300 ms application of ACh or α7 nAChR agonists were measured. Currents were filtered at 2 kHz and sampled at 10 kHz using an EPC-9 amplifier and HEKA Pulse/Patchmaster software. […] The peak current amplitude and net charge crossing the membrane (i.e. the area under the current response curve) induced by agonist application were measured using Clampfit (pClamp Suite) and normalized to the maximal response induced by ACh (3 mM ACh for peak current amplitude and 300 μM ACh for net charge).

[10] = biological target: T2, rat α1β1δε nAChR (Rattus norvegicus, UniProt P09660+P25108+P25109+P25110); assay: Ca2+ flux (FLIPR) agonist/antagonist assay; format: cell-based; details: FLIPR antagonist mode, EC90 ACh
T2 construct: expressed in transfected cells; host or cells: HEK293 (made by Bristol-Myers Squibb)
T2 sequence (P25108 21-457): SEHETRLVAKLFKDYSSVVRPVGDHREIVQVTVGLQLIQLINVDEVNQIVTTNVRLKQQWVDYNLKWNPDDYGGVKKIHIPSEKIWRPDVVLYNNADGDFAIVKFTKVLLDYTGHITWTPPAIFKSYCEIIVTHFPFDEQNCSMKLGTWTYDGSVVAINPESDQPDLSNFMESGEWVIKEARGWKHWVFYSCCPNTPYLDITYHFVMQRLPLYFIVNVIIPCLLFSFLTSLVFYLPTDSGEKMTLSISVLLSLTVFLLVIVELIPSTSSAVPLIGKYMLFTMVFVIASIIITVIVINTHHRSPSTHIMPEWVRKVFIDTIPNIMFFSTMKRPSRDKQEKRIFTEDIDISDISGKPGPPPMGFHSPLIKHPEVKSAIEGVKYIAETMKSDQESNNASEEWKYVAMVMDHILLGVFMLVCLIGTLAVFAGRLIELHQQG
T2 sequence (P25109 24-501): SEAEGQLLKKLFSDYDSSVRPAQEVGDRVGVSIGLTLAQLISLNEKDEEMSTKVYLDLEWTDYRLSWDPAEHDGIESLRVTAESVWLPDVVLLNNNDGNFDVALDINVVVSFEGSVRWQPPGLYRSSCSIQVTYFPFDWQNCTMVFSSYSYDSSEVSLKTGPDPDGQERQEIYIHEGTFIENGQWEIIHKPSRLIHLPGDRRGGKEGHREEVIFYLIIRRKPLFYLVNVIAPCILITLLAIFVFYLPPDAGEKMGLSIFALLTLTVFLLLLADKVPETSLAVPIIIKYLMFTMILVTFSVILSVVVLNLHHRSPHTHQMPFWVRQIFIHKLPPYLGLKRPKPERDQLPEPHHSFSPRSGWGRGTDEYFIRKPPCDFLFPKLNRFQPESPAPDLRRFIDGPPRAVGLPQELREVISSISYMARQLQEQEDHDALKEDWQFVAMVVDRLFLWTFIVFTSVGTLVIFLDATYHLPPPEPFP
T2 sequence (P25110 22-517): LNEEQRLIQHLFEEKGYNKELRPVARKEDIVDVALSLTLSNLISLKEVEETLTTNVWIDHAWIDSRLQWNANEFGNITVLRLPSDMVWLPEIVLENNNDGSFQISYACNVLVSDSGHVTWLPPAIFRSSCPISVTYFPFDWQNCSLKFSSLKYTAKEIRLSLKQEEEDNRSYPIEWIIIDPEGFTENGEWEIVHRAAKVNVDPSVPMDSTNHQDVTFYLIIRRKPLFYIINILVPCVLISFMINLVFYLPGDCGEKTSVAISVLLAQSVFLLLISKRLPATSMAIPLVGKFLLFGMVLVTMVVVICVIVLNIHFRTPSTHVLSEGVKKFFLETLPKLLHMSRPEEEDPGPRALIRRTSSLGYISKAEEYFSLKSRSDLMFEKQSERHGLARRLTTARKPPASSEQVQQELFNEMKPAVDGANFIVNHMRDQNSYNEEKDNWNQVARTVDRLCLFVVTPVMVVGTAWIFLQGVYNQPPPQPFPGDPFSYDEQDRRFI
T2 sequence (P09660 21-494): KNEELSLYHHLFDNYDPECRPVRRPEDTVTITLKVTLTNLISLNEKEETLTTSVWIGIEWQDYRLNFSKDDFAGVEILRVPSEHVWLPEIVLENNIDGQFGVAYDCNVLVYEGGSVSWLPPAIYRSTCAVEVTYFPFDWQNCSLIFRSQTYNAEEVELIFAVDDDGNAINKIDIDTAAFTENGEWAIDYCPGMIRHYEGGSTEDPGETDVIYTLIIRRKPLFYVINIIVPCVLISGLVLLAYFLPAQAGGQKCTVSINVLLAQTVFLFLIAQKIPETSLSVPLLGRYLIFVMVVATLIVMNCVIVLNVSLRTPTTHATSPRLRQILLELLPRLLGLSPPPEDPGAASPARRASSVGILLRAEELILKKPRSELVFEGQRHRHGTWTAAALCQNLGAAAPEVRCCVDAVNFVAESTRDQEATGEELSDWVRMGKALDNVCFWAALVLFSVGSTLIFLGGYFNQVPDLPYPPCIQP

[11] = biological target: PDE3; assay: Selectivity panel, enzyme; format: biochemical; details: Human
[12] = biological target: T3, rat α3β4 nAChR (Rattus norvegicus, UniProt P04757+P12392); assay: Ca2+ flux (FLIPR) agonist/antagonist assay; format: cell-based; details: FLIPR antagonist mode, EC90 ACh
T3 construct: expressed in transfected cells; host or cells: HEK293 (made by Bristol-Myers Squibb)
T3 sequence (P04757 26-499): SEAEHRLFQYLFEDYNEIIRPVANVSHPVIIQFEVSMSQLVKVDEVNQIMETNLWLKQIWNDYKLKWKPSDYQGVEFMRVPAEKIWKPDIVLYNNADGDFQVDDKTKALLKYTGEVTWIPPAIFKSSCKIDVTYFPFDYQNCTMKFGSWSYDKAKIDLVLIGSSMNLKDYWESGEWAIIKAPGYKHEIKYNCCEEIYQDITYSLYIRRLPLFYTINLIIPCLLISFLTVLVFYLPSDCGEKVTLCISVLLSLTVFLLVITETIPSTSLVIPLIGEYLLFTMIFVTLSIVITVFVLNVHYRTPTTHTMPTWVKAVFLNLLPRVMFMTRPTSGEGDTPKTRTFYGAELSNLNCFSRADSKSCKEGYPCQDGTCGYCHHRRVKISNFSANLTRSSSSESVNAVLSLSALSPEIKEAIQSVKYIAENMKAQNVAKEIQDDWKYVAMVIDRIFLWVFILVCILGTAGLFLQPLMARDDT
T3 sequence (P12392 21-495): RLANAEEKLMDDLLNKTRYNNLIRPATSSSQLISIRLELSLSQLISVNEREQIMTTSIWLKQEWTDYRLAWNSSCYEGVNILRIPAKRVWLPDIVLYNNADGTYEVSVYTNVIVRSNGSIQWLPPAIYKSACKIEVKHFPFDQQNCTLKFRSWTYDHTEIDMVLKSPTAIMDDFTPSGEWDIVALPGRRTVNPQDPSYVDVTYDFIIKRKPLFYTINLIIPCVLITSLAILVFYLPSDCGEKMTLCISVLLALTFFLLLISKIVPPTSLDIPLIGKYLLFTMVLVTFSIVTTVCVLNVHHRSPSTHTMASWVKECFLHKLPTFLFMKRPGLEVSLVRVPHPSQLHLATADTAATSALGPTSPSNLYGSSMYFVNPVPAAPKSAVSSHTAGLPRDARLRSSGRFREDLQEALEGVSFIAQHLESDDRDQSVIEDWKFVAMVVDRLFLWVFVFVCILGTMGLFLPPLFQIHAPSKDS

[13] = tested on: 5-HT1B; assay: Selectivity panel, binding; details: read-out: % inhibition @ 10 µM, Rat
5-HT1B, sequence (P28222 whole entry): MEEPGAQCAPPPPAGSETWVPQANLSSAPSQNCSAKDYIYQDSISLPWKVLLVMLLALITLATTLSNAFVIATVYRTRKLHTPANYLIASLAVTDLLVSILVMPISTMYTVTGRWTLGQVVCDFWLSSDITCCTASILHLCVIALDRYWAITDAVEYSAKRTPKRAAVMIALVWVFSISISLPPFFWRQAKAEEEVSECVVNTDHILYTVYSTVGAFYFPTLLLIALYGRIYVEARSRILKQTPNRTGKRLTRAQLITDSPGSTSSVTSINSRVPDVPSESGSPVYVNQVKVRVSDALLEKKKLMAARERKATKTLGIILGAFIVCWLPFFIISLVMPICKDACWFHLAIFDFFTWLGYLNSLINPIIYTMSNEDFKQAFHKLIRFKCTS

## c1cn(-c2cc(NC3=NC[C@@]4(CN5CCC4CC5)O3)ncn2)cn1 [BMS-933043, (2R)-N-(6-(1H-imidazol-1-yl)-4-pyrimidinyl)-4'H-spiro[4-azabicyclo[2.2.2]octane-2,5'-[1,3]oxazol]-2'-amine]
[1]; 0.1–3 mg/kg po
  EDS performance in neonatal PCP treated rats: significantly improved EDS performance; also recorded: completely reversed by all doses
[1]; PCP/0.1 mg/kg po, 0.1 mg/kg
  Number of trials to criteria, Complex discrimination: 6 (2×) and 16 and 7 (2×) and 8 (2×) and 21 and 19
  Number of trials to criteria, Simple discrimination: 7 (3×) and 11 and 9 and 8 (2×) and 10 and 6
[1]; PCP/0.3 mg/kg po, 0.3 mg/kg
  Number of trials to criteria, Complex discrimination: 18 and 10 (2×) and 7 and 6 (3×) and 8 and 16
  Number of trials to criteria, Simple discrimination: 10 and 15 and 13 and 8 and 9 and 12 and 6 and 19 and 7
[1]; PCP/1 mg/kg po, 1 mg/kg
  Number of trials to criteria, Complex discrimination: 6 (2×) and 11 (2×) and 7 (2×) and 13 and 14 (2×)
  Number of trials to criteria, Simple discrimination: 6 (3×) and 12 (2×) and 13 and 11 and 8 and 9
[1]; PCP/3 mg/kg po, 3 mg/kg
  Number of trials to criteria, Complex discrimination: 6 (2×) and 8 and 16 and 10 (2×) and 15 and 17 and 11
  Number of trials to criteria, Simple discrimination: 7 (4×) and 6 (2×) and 16 (2×) and 9
[1]; po
  Active dose range, Neonatal PCP ID/ED: 0.1–3.0 (po) mg/kg
  longer time to complete the EDS in neonatal PCP treated rats: attenuated
[2]; 0.3 and 10 mg/kg sc
  deficit in N40 gating following S(+)ketamine: neither the lowest dose (0.3 mg/kg; data not shown) nor the highest dose (10 mg/kg) tested were significantly different
[2]; 0.56, 1 and 3 mg/kg sc
  deficit in N40 gating following S(+)ketamine: significant reduction
[2]; sc
  Active dose range, S(+)Ketamine N40 gating: 0.56–3.0 (sc) mg/kg
[3]
  IC50: > 30000 nM
[4]
  IC50: > 30000 nM
[5]
  IC50: > 30000 nM
[6]
  inhibition at 10 µM: -5%
[7]
  IC50: > 25000 nM
[8]; HEK293/Human α7 nAChR Mean ± SD Ki
  Ki: 8 nM
[8]; HEK293/human α7 nAChR Ki (individual)
  Ki: 10.5 nM and 5.7 nM
[8]; read-out: HEK293/Human α7 nAChR Mean ± SD Ki
  Ki: 8.1 nM
[8]; read-out: HEK293/human α7 nAChR Ki (individual)
  Ki: 8.1 nM
[9]
  EC50: 290 ± 10 nM
[9]; 0.1 µM
  Net Charge (Current Area) normalized to 300 µM ACh: 0.01982 and 0.01318 and 0.03866 and 0.03782 and 0.02283 and 0.01327 and 0.03856
  Peak Current normalized to 3 mM ACh: 0.005961 and 0.006675 and 0.008382 and 0.007317 and 0.006875 and 0.005721 and 0.00606
[9]; 0.3 µM
  Net Charge (Current Area) normalized to 300 µM ACh: 0.3496 and 0.3624 and 0.3212 and 0.3215 and 0.2954 and 0.3576 and 0.4143
  Peak Current normalized to 3 mM ACh: 0.02637 and 0.02303 and 0.02389 and 0.02438 and 0.0295 and 0.03259 and 0.02737
[9]; 1 µM
  Net Charge (Current Area) normalized to 300 µM ACh: 0.6952 and 0.6304 and 0.6554 and 0.6122 and 0.619 and 0.6592 and 0.8129
  Peak Current normalized to 3 mM ACh: 0.05479 and 0.03294 and 0.04392 and 0.05131 and 0.08504 and 0.08024 and 0.07272
[9]; 3 µM
  Net Charge (Current Area) normalized to 300 µM ACh: 0.7025 and 0.6903 and 0.6991 and 0.888 and 0.7947 and 0.7791 and 0.7655
  Peak Current normalized to 3 mM ACh: 0.126 and 0.0997 and 0.1092 and 0.09913 and 0.1966 and 0.202 and 0.183
[9]; 10 µM
  Net Charge (Current Area) normalized to 300 µM ACh: 0.8035 and 0.7537 and 0.7969 and 0.7637 and 0.7224 and 0.6788 and 0.8823
  Peak Current normalized to 3 mM ACh: 0.217 and 0.1532 and 0.1702 and 0.1779 and 0.3334 and 0.2987 and 0.3004
[9]; Human, normalized to 300 μM ACh
  Mean ± SEM Net Charge Ymax: 0.78 ± 0.004
[9]; Human, normalized to 3 mM ACh
  Mean ± SEM Peak Current Ymaxobs @ 10 μM: 0.24 ± 0.03
[10]
  IC50: > 30000 nM
[11]
  IC50: > 30000 nM
[12]
  IC50: > 30000 nM
[13]
  inhibition at 10 µM: 0%

Source: PMC4965148 (PLoS ONE, 2016)
